Results as given in ChEMBL document CHEMBL1201862, “PubChem BioAssay data set” (2004).
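1) Cells in 96-well plates. 2) Compound, 48 h, 5 concentrations. 3) Linear interpolation between surrounding doses. 4) Unreached endpoint = highest concentration. GI50 = concentration required for 50% inhibition of growth.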 Active and inactive are the calls of the source. Cut-off read from the data, not from the text of the source: active = GI50 up to about 1.1 µM and inactive = higher.

What was measured:
Assay in all cases: NCI tumour cell line growth inhibition, 48 h
NCI-H460 = system: NCI-H460
CCRF-CEM = system: CCRF-CEM
NCI-H23 = system: NCI-H23
SN12C = system: SN12C
LXFL 529 = system: LXFL 529
OVCAR-8 = system: OVCAR-8
UO-31 = system: UO-31
TK-10 = system: TK-10
UACC-62 = system: UACC-62
A498 = system: A498
SNB-19 = system: SNB-19
HCT-116 = system: HCT-116
NCI-H522 = system: NCI-H522
HCC 2998 = system: HCC 2998
OVCAR-4 = system: OVCAR-4
IGROV-1 = system: IGROV-1
HCT-15 = system: HCT-15
HOP-18 = system: HOP-18
SF-295 = system: SF-295
UACC-257 = system: UACC-257
U-251 = system: U-251
ACHN = system: ACHN
SW-620 = system: SW-620
DMS-114 = system: DMS-114
HOP-92 = system: HOP-92
RXF 631 = system: RXF 631
Malme-3M = system: Malme-3M
DLD-1 = system: DLD-1
SR = system: SR
K562 = system: K562
RPMI-8226 = system: RPMI-8226
OVCAR-3 = system: OVCAR-3
LOX IMVI = system: LOX IMVI
MOLT-4 = system: MOLT-4
SF-268 = system: SF-268
HOP-62 = system: HOP-62
NCI-H226 = system: NCI-H226
CAKI-1 = system: CAKI-1
SNB-75 = system: SNB-75
HT-29 = system: HT-29
SK-OV-3 = system: SK-OV-3
KM-20L2 = system: KM-20L2
A549 = system: A549
HL-60 = system: HL-60
KM12 = system: KM12
M19-MEL = system: M19-MEL
COLO 205 = system: COLO 205
SK-MEL-5 = system: SK-MEL-5
M14 = system: M14
XF498 = system: XF498
RXF 393 = system: RXF 393
OVCAR-5 = system: OVCAR-5
SF-539 = system: SF-539
EKVX = system: EKVX
786-0 = system: 786-0
SNB-78 = system: SNB-78
SK-MEL-28 = system: SK-MEL-28
SK-MEL-2 = system: SK-MEL-2

Compound: CC1(C)CCc2cc3c(cc2O1)OCC1c2cc4c(cc2OC31)OCO4 (configuration not stated)
- GI50 (NCI-H460): 54.5 µM (inactive)
- GI50 (CCRF-CEM): > 100 µM (inactive)
- GI50 (NCI-H23): > 100 µM (inactive)
- GI50 (SN12C): > 100 µM (inactive)
- GI50 (LXFL 529): > 100 µM (inactive)
- GI50 (OVCAR-8): > 100 µM (inactive)
- GI50 (UO-31): > 100 µM (inactive)
- GI50 (TK-10): 99.8 µM (inactive)
- GI50 (UACC-62): > 100 µM (inactive)
- GI50 (A498): > 100 µM (inactive)
- GI50 (SNB-19): > 100 µM (inactive)
- GI50 (HCT-116): > 100 µM (inactive)
- GI50 (NCI-H522): > 100 µM (inactive)
- GI50 (HCC 2998): > 100 µM (inactive)
- GI50 (OVCAR-4): > 100 µM (inactive)
- GI50 (IGROV-1): > 100 µM (inactive)
- GI50 (HCT-15): 63 µM
- GI50 (HOP-18): > 100 µM (inactive)
- GI50 (SF-295): > 100 µM (inactive)
- GI50 (UACC-257): 28 µM (inactive)
- GI50 (U-251): > 100 µM (inactive)
- GI50 (ACHN): > 100 µM (inactive)
- GI50 (SW-620): > 100 µM (inactive)
- GI50 (DMS-114): > 100 µM (inactive)
- GI50 (HOP-92): > 100 µM (inactive)
- GI50 (RXF 631): 55.3 µM (inactive)
- GI50 (Malme-3M): 32.7 µM (inactive)
- GI50 (DLD-1): > 100 µM (inactive)
- GI50 (SR): > 100 µM (inactive)
- GI50 (K562): 71.1 µM (inactive)
- GI50 (RPMI-8226): > 100 µM (inactive)
- GI50 (OVCAR-3): > 100 µM (inactive)
- GI50 (LOX IMVI): > 100 µM (inactive)
- GI50 (MOLT-4): > 100 µM (inactive)
- GI50 (SF-268): > 100 µM (inactive)
- GI50 (HOP-62): > 100 µM (inactive)
- GI50 (NCI-H226): > 100 µM (inactive)
- GI50 (CAKI-1): > 100 µM (inactive)
- GI50 (SNB-75): > 100 µM (inactive)
- GI50 (HT-29): > 100 µM (inactive)
- GI50 (SK-OV-3): > 100 µM (inactive)
- GI50 (KM-20L2): > 100 µM (inactive)
- GI50 (A549): > 100 µM (inactive)
- GI50 (HL-60): 35.5 µM (inactive)
- GI50 (KM12): > 100 µM (inactive)
- GI50 (M19-MEL): 82.4 µM (inactive)
- GI50 (COLO 205): > 100 µM (inactive)
- GI50 (SK-MEL-5): 39.9 µM (inactive)
- GI50 (M14): > 100 µM (inactive)
- GI50 (XF498): 52.1 µM (inactive)
- GI50 (RXF 393): > 100 µM (inactive)
- GI50 (OVCAR-5): > 100 µM (inactive)
- GI50 (SF-539): > 100 µM (inactive)
- GI50 (EKVX): > 100 µM (inactive)
- GI50 (786-0): > 100 µM (inactive)

Compound: CCOC(=O)C(=O)Nc1ccccc1CC
- GI50 (NCI-H460): > 100 µM (inactive)
- GI50 (CCRF-CEM): > 100 µM (inactive)
- GI50 (NCI-H23): > 100 µM (inactive)
- GI50 (SN12C): > 100 µM (inactive)
- GI50 (SNB-78): > 10 µM (inactive)
- GI50 (LXFL 529): > 100 µM (inactive)
- GI50 (OVCAR-8): > 100 µM (inactive)
- GI50 (UO-31): > 100 µM (inactive)
- GI50 (TK-10): > 100 µM (inactive)
- GI50 (UACC-62): > 100 µM (inactive)
- GI50 (SNB-19): > 100 µM (inactive)
- GI50 (HCT-116): > 100 µM (inactive)
- GI50 (NCI-H522): > 100 µM (inactive)
- GI50 (HCC 2998): > 100 µM (inactive)
- GI50 (OVCAR-4): > 100 µM (inactive)
- GI50 (IGROV-1): > 100 µM (inactive)
- GI50 (HOP-18): > 100 µM (inactive)
- GI50 (SF-295): > 100 µM (inactive)
- GI50 (UACC-257): > 100 µM (inactive)
- GI50 (U-251): > 100 µM (inactive)
- GI50 (ACHN): > 100 µM (inactive)
- GI50 (SW-620): > 100 µM (inactive)
- GI50 (DMS-114): > 100 µM (inactive)
- GI50 (HOP-92): > 100 µM (inactive)
- GI50 (RXF 631): > 100 µM (inactive)
- GI50 (SK-MEL-28): > 100 µM (inactive)
- GI50 (Malme-3M): > 100 µM (inactive)
- GI50 (DLD-1): > 100 µM (inactive)
- GI50 (SK-MEL-2): > 100 µM (inactive)
- GI50 (K562): > 100 µM (inactive)
- GI50 (RPMI-8226): > 100 µM (inactive)
- GI50 (OVCAR-3): > 100 µM (inactive)
- GI50 (LOX IMVI): > 100 µM (inactive)
- GI50 (MOLT-4): > 100 µM (inactive)
- GI50 (SF-268): > 100 µM (inactive)
- GI50 (HOP-62): > 100 µM (inactive)
- GI50 (NCI-H226): > 100 µM (inactive)
- GI50 (CAKI-1): > 100 µM (inactive)
- GI50 (HT-29): > 100 µM (inactive)
- GI50 (SK-OV-3): > 100 µM (inactive)
- GI50 (A549): > 100 µM (inactive)
- GI50 (HL-60): > 100 µM (inactive)
- GI50 (KM12): > 100 µM (inactive)
- GI50 (M19-MEL): > 100 µM (inactive)
- GI50 (SK-MEL-5): > 100 µM (inactive)
- GI50 (M14): > 100 µM (inactive)
- GI50 (XF498): > 100 µM (inactive)
- GI50 (RXF 393): > 100 µM (inactive)
- GI50 (OVCAR-5): > 100 µM (inactive)
- GI50 (SF-539): > 100 µM (inactive)
- GI50 (EKVX): > 100 µM (inactive)
- GI50 (786-0): > 100 µM (inactive)
